Results published in patent US20200206248A1, “COMBINED MEDICINAL PREPARATION FOR TREATING VIRAL INFECTIONS” (ALLA CHEM, LLC, priority 2017, published 2020).

What was measured:
[1] = Acute toxicity of SODF, intragastric administration to rats; format: in vivo; settings: 3000 mg/kg
Description: (§1) Evaluation of SODF acute toxicity and tolerated toxic and lethal doses for single intragastric administration to male and female mice and rats. Evaluation was carried out for 24 male rats weighing 235-260 g and […] female rats weighing 225-250 g as well as for 24 male mice weighing 21-25 g and 24 female mice weighing 20-24 g. All in all, there were 8 groups in each of the four categories. SODF was administered in the largest possible volume 10 ml/kg three times a day at a 40-minute interval. Prior to administration, SODFs were dispersed, then ground in a mortar and mixed with a 0.5% Tween 80 solution to obtain a suspension suitable for intragastric administration to animals at a dose of ≤10 ml/kg. Solutions for administration were always prepared on the day of administration. Prepared SODF suspensions were administered at the same time every day (within a deviation of maximum 4 hours). […] On each of the 14 days following SODF administration, the weights of rats and mice were recorded and the animals were examined to detect any cases of death or abnormal condition. In this way, parameters of acute SODF toxicity were established.

[2] = Acute toxicity of SODF, intragastric administration to mice; format: in vivo; settings: 3000 mg/kg
Description: as §1

[3] = tested on: NL4.3 HIV strain (NL4.3-GFP); test: Anti-HIV activity in SupT1 cells infected with NL4.3-GFP; format: cell-based; settings: read after 45 hours
Description: (§2) The anti-HIV activity of active ingredients (test compounds) was evaluated using SupT1 cells. The cells were infected with the NL4.3 HIV strain carrying a gene of green fluorescence protein (NL4.3-GFP). The virus preparation was obtained by transfection of 293T cells of proviral DNA. Forty-eight hours after the transfection, the preparation was frozen and stored until use. To enhance the infection efficiency, the suspension of SupT1 cells was precipitated from the infection mixture by centrifugation. Test compounds were added to the cells immediately before virus addition. After a 2-hour incubation, the infection mixture was replaced by fresh culture medium with test compounds. The infection efficiency was evaluated following 45 hours by counting the percent of fluorescing cells against noninfected cell cultures. The cytotoxicity of test compounds was evaluated simultaneously at the same, but not infected, SupT1 cellular line using the XTT reagent. To this end, serial ten-fold dilutions of test compounds were prepared (starting with 10 μM to evaluate viral activity or with 100 μM to evaluate cytotoxicity). […] As a result, the values of activity EC50, cytotoxicity CC50, and selectivity index SI were calculated. The test quality was evaluated using the following controls: signal to background ratio, integrase inhibitor raltegravir (1 μM), and reproducibility of the test. […]

HBV = test: Anti-HBV activity in AD38 cells (secreted HBV DNA, qPCR); format: cell-based; settings: 4-day incubation
Description: (§3) Anti-HBV activity of tenofovir of formulas 4f, 4h, 4k, 4m (test compounds) was evaluated in the cell line of human hepatoma AD38 carrying integrated HBV DNA with terminal repeats [Lander S, et. al, Antimicrobial Agents and Chemotherapy, 1997, pp. 1715-1720]. The cell line was made available by Dr. C. Seeger, Fox Chase Cancer Center, Philadelphia, Pa.). Simultaneously, cytotoxicity was evaluated.
The cells were cultivated in complete DMEM/F12 culture medium containing 2 mM of L-glutamine (Thermo Scientific, Cat #11320033), 10% fetal bovine serum (ThermoFisher Scientific, Cat#), 1% antibiotic-antimycotic solution (ThermoFisher Scientific, Cat#15240096), and 0.3 μg/ml of tetracycline (Sigma, Cat # T7660-5G). The cells were seeded into 96-well Corning Biocoat plates (Corning, Cat # 356407) in 225 μl of complete medium without tetracycline, 20 000 cells per well. The test compounds were dissolved first in DMSO (Sigma cat. D2650), then in DMEM/F12 medium, and 9 dilutions in log 3 steps (225 μl) were added to the cells. The final concentrations of test compounds varied from […] to 1 nM. […]
The technique of real-time quantitative polymerase chain reaction (RT-qPCR) was applied using the CFX96TM Real-Time System instrument (Bio-Rad, Hercules, Calif.) and polymerase AmpliTaq Gold® DNA Polymerase (Applied Biosystems®). […]
The fluorescent signal was read at the end of each cycle. […]

SupT1 cells = test: Cytotoxicity in non-infected SupT1 cells (XTT reagent); format: cell-based
Description: as §2

AD38 cell line = test: Cytotoxicity in AD38 cells (ATPLite); format: cell-based, human; settings: 3 days
Description: as §3
The cytotoxicity of test compounds was determined simultaneously on the same AD38 cell line. The cells were cultivated in a 96-well black plate with a transparent bottom (10^4 cells/well) in complete DMEM/F12 medium containing 2 mM of L-glutamine (Thermo Scientific, Cat #11320033), 10% fetal bovine serum (ThermoFisher Scientific, Cat#), and 1% antibiotic-antimycotic solution (ThermoFisher Scientific, Cat#15240096). The AD38 cells were seeded in 96-well plates (7.5×10^3 cells/well in 100 μl of medium). The solutions of test compounds in DMEM were prepared immediately before use. […] The number of living cells was counted using the ATPLite kit (Perkin Elmer, Boston, USA) in compliance with manufacturer's instructions. […] After additional 5-minute incubation on a rocking platform at 600 rev/min, the plates were kept in dark for 10 minutes, and the luminescence was read using TopCount NXT (Packard, Perkin Elmer). […] CC50 values (Table 2) were then determined using XLfit 4 software.

CCC(=O)[N-]S(=O)(=O)c1ccc(NC(=O)Cc2ccc(Br)c(Oc3cc(Cl)cc(C#N)c3)c2F)c(Cl)c1.[Na+] [Compound 1a, elsulfavirine sodium]
body weight gain [1]: did not affect body weight gain
body weight gain [2]: did not affect body weight gain

CC(C)OC(=O)[C@H](C)N[P@](=O)(CO[C@H](C)Cn1cnc2c(N)ncnc21)Oc1ccccc1 [Compound 4f, tenofovir alafenamide hemifumarate]
EC50 [3]: 43 nM
EC50 (HBV): 0.3 to 0.7 nM
CC50 (SupT1 cells): > 100000 nM
CC50 (AD38 cell line): 3000 nM
